For 32 compounds, inhibition and EC50 results are on record in US20240124444A1 (Celgene Corporation, priority 2020, published 2024).

Each structure is given as a SMILES string. Like-named read-outs stand apart in the source and are kept apart here.

In the experiment the test system is C. parvum strain UGA1. Kind of experiment: C. parvum growth inhibition assay (Nluc luminescence in HCT-8 cells). Type of experiment: cell-based, Cryptosporidium parvum. The following applies: Cryptosporidium parvum; for inhibition at 1 µM / inhibition at 10 µM: HCT-8; for inhibition at 1 µM: read-out: % inh @ 1 uM C. parvum; for inhibition at 10 µM: read-out: % inh @ 10 uM C. parvum; for EC50: HCT-8, 48 h, C. parvum growth inhibition in HCT-8 cells, 48 hours, 6 concentrations 10-0.04 μM.

The mark [1] stands for this setting: single point inhibition at 1 uM.
Setting [2] is: single point inhibition at 10 uM.
Where [3] appears, read: single point inhibition @ 10 uM.

Consider `COc1nccc(-c2cc3cnc(NC(=O)C4C5CCCCC54)cc3n2C)n1` (centres unmarked) [Example 211, N-(2-(2-methoxypyrimidin-4-yl)-1-methyl-1H-pyrrolo[3,2-c]pyridin-6-yl)bicyclo[4.1.0]heptane-7-carboxamide], for which the inhibition at 1 µM under setting [1] was 0 to 33%. Also, under setting [2], the inhibition at 10 µM lay in the range of 67 to 100%. For `CN1CCC(c2cc3cnc(NC(=O)c4cnn(C)c4)cc3[nH]2)CC1` [Example 336, 1-methyl-N-(2-(1-methylpiperidin-4-yl)-1H-pyrrolo[3,2-c]pyridin-6-yl)-1H-pyrazole-4-carboxamide], the inhibition at 1 µM under setting [1] was 0 to 33%. The inhibition at 10 µM under setting [2] fell in the range of 0 to 33%. The compound `CCc1nccc(-c2cc3cnc(NC4CCOCC4)cc3n2C)n1` [Example 387, 2-(2-ethylpyrimidin-4-yl)-1-methyl-N-(tetrahydro-2H-pyran-4-yl)-1H-pyrrolo[3,2-c]pyridin-6-amine] displayed an EC50 above 1 µM. As for `Cc1nn(C)cc1C(=O)Nc1cc2[nH]c(-c3ccncc3)cc2cn1` [Example 278, 1,3-dimethyl-N-(2-(pyridin-4-yl)-1H-pyrrolo[3,2-c]pyridin-6-yl)-1H-pyrazole-4-carboxamide], the inhibition at 1 µM under setting [1] lay within 0 to 33%. Moreover, the inhibition at 10 µM under setting [2] was in the range of 0 to 33%. As for `Cc1cc(-c2cc3cnc(NC(=O)C(C)C)cc3[nH]2)ccn1` [Example 160, N-(2-(2-methylpyridin-4-yl)-1H-pyrrolo[3,2-c]pyridin-6-yl)isobutyramide], the inhibition at 1 µM (single point inhibition @ 1 uM) lay within 0 to 33%. Moreover, the inhibition at 10 µM under setting [3] fell in the range of 67 to 100%. In turn, `Cc1cc(-c2[nH]c3cc(NC4CCOC4)ncc3c2C)ccn1` (stereo in doubt) [Example 368, (R)-3-methyl-2-(2-methylpyridin-4-yl)-N-(tetrahydrofuran-3-yl)-1H-pyrrolo[3,2-c]pyridin-6-amine] had an EC50 above 1 µM. Same read-out and setting: as for `FC(F)(F)COc1nccc(-c2cc3cnc(NC4CCOCC4)cc3[nH]2)n1` [Example 380, N-(tetrahydro-2H-pyran-4-yl)-2-(2-(2,2,2-trifluoroethoxy)pyrimidin-4-yl)-1H-pyrrolo[3,2-c]pyridin-6-amine], the figure is above 1 µM. With `Cc1cc(-c2cc3cnc(NC(=O)c4cnn(C5CCOC5)c4)cc3[nH]2)ccn1` (centres unmarked) [Example 236, N-(2-(2-methylpyridin-4-yl)-1H-pyrrolo[3,2-c]pyridin-6-yl)-1-(tetrahydrofuran-3-yl)-1H-pyrazole-4-carboxamide], the inhibition at 1 µM under setting [1] is 33 to 66%. In addition, the inhibition at 10 µM under setting [2] lay in the range of 33 to 66%. `FC(F)(F)c1cc2cnc(NC3CCOCC3)cc2[nH]1` [Example 71, N-(tetrahydro-2H-pyran-4-yl)-2-(trifluoromethyl)-1H-pyrrolo[3,2-c]pyridin-6-amine] returned an EC50 above 1 µM. The same measure, in the same setting: as for `CNc1cc2c(cn1)cc(-c1cc(C)ncn1)n2C` [Example 126, N,1-dimethyl-2-(6-methylpyrimidin-4-yl)-1H-pyrrolo[3,2-c]pyridin-6-amine], the figure is above 1 µM.

`FC(F)(F)CCc1nccc(-c2cc3cnc(NC4CCOCC4)cc3[nH]2)n1` [Example 385, N-(tetrahydro-2H-pyran-4-yl)-2-(2-(3,3,3-trifluoropropyl)pyrimidin-4-yl)-1H-pyrrolo[3,2-c]pyridin-6-amine] displayed an EC50 above 1 µM. As to `Cc1ccnc(-c2cc3cnc(NC(=O)C4CC4)cc3n2C)c1` [Example 73, N-(1-methyl-2-(4-methylpyridin-2-yl)-1H-pyrrolo[3,2-c]pyridin-6-yl)cyclopropanecarboxamide], the EC50 is above 1 µM.

With `COC(=O)Nc1cc2[nH]c(-c3ccnc(C)c3)cc2cn1` [Example 174, methyl 2-(2-methylpyridin-4-yl)-1H-pyrrolo[3,2-c]pyridin-6-ylcarbamate], the inhibition at 1 µM (single point inhibition @ 1 uM) fell in the range of 0 to 33%. Further, the inhibition at 10 µM under setting [3] lay in the range of 67 to 100%. For the compound `Cn1c(-c2cccnc2)cc2cnc(Nc3cnn(C4CCOCC4)c3)cc21` [Example 266, 1-methyl-2-(pyridin-3-yl)-N-(1-(tetrahydro-2H-pyran-4-yl)-1H-pyrazol-4-yl)-1H-pyrrolo[3,2-c]pyridin-6-amine], the inhibition at 1 µM under setting [1] is 0 to 33%. Under setting [2], the inhibition at 10 µM lay in the range of 0 to 33%.

As to `COc1nccc(-c2cc3cnc(NC(=O)CC4COC4)cc3[nH]2)n1` [Example 227, N-(2-(2-methoxypyrimidin-4-yl)-1H-pyrrolo[3,2-c]pyridin-6-yl)-2-(oxetan-3-yl)acetamide], the inhibition at 1 µM under setting [1] is 0 to 33%. For the same compound, under setting [2], the inhibition at 10 µM lay in the range of 33 to 66%. Consider `Cn1c(-c2cc(C(F)(F)F)ncn2)cc2cnc(NC3CCOCC3)cc21` [Example 392, 1-methyl-N-(tetrahydro-2H-pyran-4-yl)-2-(6-(trifluoromethyl)pyrimidin-4-yl)-1H-pyrrolo[3,2-c]pyridin-6-amine], for which the EC50 is above 1 µM. Turning to `Cc1cc(-c2cc3cnc(NC(=O)c4cnn(C)c4)cc3[nH]2)ccn1` [Example 224, 1-methyl-N-(2-(2-methylpyridin-4-yl)-1H-pyrrolo[3,2-c]pyridin-6-yl)-1H-pyrazole-4-carboxamide], the inhibition at 1 µM under setting [1] lay within 0 to 33%. The inhibition at 10 µM under setting [2] lay within 33 to 66%.

On to `Cn1cc(C(=O)Nc2cc3c(cn2)cc(-c2ccnc(NCC(F)(F)F)n2)n3CCO)cn1` [Example 80, N-(1-(2-hydroxyethyl)-2-(2-(2,2,2-trifluoroethylamino)pyrimidin-4-yl)-1H-pyrrolo[3,2-c]pyridin-6-yl)-1-methyl-1H-pyrazole-4-carboxamide], for which the EC50 is above 1 µM. In addition, the inhibition at 1 µM (single point inhibition @ 1 uM) is 0 to 33%. Besides, the inhibition at 10 µM under setting [3] lay within 33 to 66%. `Cc1cc(-c2[nH]c3cc(NC4CCOC4)ncc3c2C)ccn1` (stereo in doubt) [Example 367, (S)-3-methyl-2-(2-methylpyridin-4-yl)-N-(tetrahydrofuran-3-yl)-1H-pyrrolo[3,2-c]pyridin-6-amine] showed an EC50 above 1 µM.

For the compound `COc1cc(Nc2cc3[nH]c(-c4ccncc4)cc3cn2)cc(-n2cncn2)c1` [Example 140, N-(3-methoxy-5-(1H-1,2,4-triazol-1-yl)phenyl)-2-(pyridin-4-yl)-1H-pyrrolo[3,2-c]pyridin-6-amine], the inhibition at 1 µM (single point inhibition @ 1 uM) was 0 to 33%. Moreover, the inhibition at 10 µM under setting [3] was in the range of 67 to 100%. In the case of `Cc1cc2cnc(NC(=O)C3CC3)cc2[nH]1` [Example 327, N-(2-methyl-1H-pyrrolo[3,2-c]pyridin-6-yl)cyclopropanecarboxamide], the inhibition at 1 µM under setting [1] lay within 0 to 33%. In addition, the inhibition at 10 µM under setting [2] was in the range of 0 to 33%. Take `Cc1nccc(-c2cc3cnc(NC(=O)c4cnn(C)c4)cc3[nH]2)c1F` [Example 283, N-(2-(3-fluoro-2-methylpyridin-4-yl)-1H-pyrrolo[3,2-c]pyridin-6-yl)-1-methyl-1H-pyrazole-4-carboxamide]: the inhibition at 1 µM under setting [1] lay in the range of 0 to 33%. Moreover, the inhibition at 10 µM under setting [2] lay within 0 to 33%.

In the case of `Cc1nn(C)cc1C(=O)Nc1cc2c(cn1)cc(-c1ccnc(NCC(F)(F)F)n1)n2C` [Example 240, 1,3-dimethyl-N-(1-methyl-2-(2-(2,2,2-trifluoroethylamino)pyrimidin-4-yl)-1H-pyrrolo[3,2-c]pyridin-6-yl)-1H-pyrazole-4-carboxamide], under setting [1], the inhibition at 1 µM lay in the range of 0 to 33%. In addition, the inhibition at 10 µM under setting [2] is 0 to 33%. Take `CCn1c(-c2ccnc(OC)n2)cc2cnc(NC(=O)C3CC3)cc21` [Example 344, N-(1-ethyl-2-(2-methoxypyrimidin-4-yl)-1H-pyrrolo[3,2-c]pyridin-6-yl)cyclopropanecarboxamide]: the EC50 was in the range of 0.5 to 1 µM.

Take `Cn1ncc2ccc(Nc3cc4[nH]c(-c5ccncc5)cc4cn3)cc21` [Example 195, 1-methyl-N-(2-(pyridin-4-yl)-1H-pyrrolo[3,2-c]pyridin-6-yl)-1H-indazol-6-amine]: for the setting “single point inhibition @ 1 uM”, the inhibition at 1 µM lay within 67 to 100%. Besides, under setting [3], the inhibition at 10 µM fell in the range of 67 to 100%.

Turning to `COc1nccc(-c2cc3cnc(NC(=O)c4cnn(C)c4)cc3n2C)n1` [Example 256, N-(2-(2-methoxypyrimidin-4-yl)-1-methyl-1H-pyrrolo[3,2-c]pyridin-6-yl)-1-methyl-1H-pyrazole-4-carboxamide], under setting [1], the inhibition at 1 µM fell in the range of 0 to 33%. Besides, the inhibition at 10 µM under setting [2] fell in the range of 0 to 33%.

As to `COc1nccc(-c2cc3cnc(NC(=O)c4cnn([C@H]5CC[C@H](O)CC5)c4)cc3[nH]2)n1` [Example 219, 1-((1r,4r)-4-hydroxycyclohexyl)-N-(2-(2-methoxypyrimidin-4-yl)-1H-pyrrolo[3,2-c]pyridin-6-yl)-1H-pyrazole-4-carboxamide], the inhibition at 1 µM under setting [1] fell in the range of 0 to 33%. Moreover, under setting [2], the inhibition at 10 µM was 33 to 66%. Consider `CN(C(=O)c1cnn(C)c1)c1cc2[nH]c(-c3ccnc(NCC(F)(F)F)n3)cc2cn1` [Example 257, N,1-dimethyl-N-(2-(2-(2,2,2-trifluoroethylamino)pyrimidin-4-yl)-1H-pyrrolo[3,2-c]pyridin-6-yl)-1H-pyrazole-4-carboxamide], for which the inhibition at 1 µM under setting [1] lay within 0 to 33%. The inhibition at 10 µM under setting [2] was 0 to 33%. `Cc1cc(-c2cc3cnc(NC(=O)C4CC4)cc3n2CCO)ncn1` [Example 55, N-(1-(2-hydroxyethyl)-2-(6-methylpyrimidin-4-yl)-1H-pyrrolo[3,2-c]pyridin-6-yl)cyclopropanecarboxamide] displayed an EC50 above 1 µM. Consider `CC(C)n1cc(C(=O)Nc2cc3[nH]c(-c4ccncc4)cc3cn2)cn1` [Example 162, 1-isopropyl-N-(2-(pyridin-4-yl)-1H-pyrrolo[3,2-c]pyridin-6-yl)-1H-pyrazole-4-carboxamide], for which the inhibition at 1 µM (single point inhibition @ 1 uM) lay in the range of 0 to 33%. In addition, the inhibition at 10 µM under setting [3] fell in the range of 67 to 100%. Take `Cc1ncc(-c2cc3cnc(NC(=O)C4CC4)cc3[nH]2)s1` [Example 101, N-(2-(2-methylthiazol-5-yl)-1H-pyrrolo[3,2-c]pyridin-6-yl)cyclopropanecarboxamide]: the concentration giving a half-maximal response (EC50) was above 1 µM. Consider `CC(C)n1cc(C(=O)Nc2cc3[nH]c(-c4ccnc(OCCF)n4)cc3cn2)cn1` [Example 146, N-(2-(2-(2-fluoroethoxy)pyrimidin-4-yl)-1H-pyrrolo[3,2-c]pyridin-6-yl)-1-isopropyl-1H-pyrazole-4-carboxamide], for which the inhibition at 1 µM (single point inhibition @ 1 uM) fell in the range of 0 to 33%. For the same compound, under setting [3], the inhibition at 10 µM is 67 to 100%.

As usually defined, the EC50 is the concentration at which the effect is half-maximal. Higher therefore signals lower potency in that assay.
